Assay results reported in US12391672B2, “Solid forms comprising (S)-4-(4-(4-(((2-(2,6-dioxopiperidin-3-yl)-1-oxoisoindolin-4-yl)oxy)methyl)benzyl)piperazin-1-yl)-3-fluorobenzonitrile and salts thereof, and compositions comprising and methods of using the same” (Celgene Corporation, priority 2019, dated 2025).

Columns and labels:
Type in all cases: physicochemical
[1] = Solubility of polymorphic forms in physiologically relevant media and final pH
From the text: Solubility data of the several polymorphic forms of Compound 1 in physiologically relevant media and the final pH of these solutions are summarized in the following tables.

[2] = HBr salt solubility in buffers (1 mg/mL slurries, mother liquor by HPLC); conditions: all buffers tested
Protocol: (§1) The HBr salt was largely insoluble in various buffers when 1 mg/mL slurries were prepared and the mother liquor concentration determined (by HPLC): <0.05 mg/mL in all buffers tested.

[3] = Dynamic vapor sorption / hygroscopicity
Protocol: Projekt Messtechnik (now ProUmid) SPS11-100n. The sample was placed on an aluminum holder on top of a microbalance and allowed to equilibrate at 50% r.h. before starting one of the following pre-defined humidity programs (1 cycle): • hold 2 h at 50% r.h., • decrease humidity −5% r.h. h^−1 for 10 h (i.e., from 50% r.h. to 0% r.h.), • hold 5 h at […]., • increase humidity +5% r.h. h^−1 for 19 h (i.e., from 0% r.h. to 95% r.h.), • hold 5 h at 95% r.h., • decrease humidity −5% r.h. h^−1 for 9 h (i.e., from 95% r.h. to 50% r.h.), • hold 2 h at 50% r.h. or • hold 2 h at 50% r.h., • increase humidity +5% r.h. h^−1 for 9 h (i.e., from 50% r.h. to 95% r.h.), • hold 5 h at 95% r.h., • decrease humidity −5% r.h. h^−1 for 19 h (i.e., from 95% r.h. to 0% r.h.), • hold 5 h at 0% r.h., • increase humidity +5% r.h. h^−1 for 10 h (i.e., from 0% r.h. to 50% r.h.), • hold 2 h at 50% r.h.
The hygroscopicity was classified based on the mass gain at 85% r.h. relative to the initial mass as follows: deliquescent (sufficient water adsorbed to form a liquid), very hygroscopic (mass increase of […]), hygroscopic (mass increase of <15% but ≥2%), slightly hygroscopic (mass increase of <2% but ≥0.2%), or non-hygroscopic (mass increase of <0.2%).

[4] = Solid state stability under accelerated storage conditions; conditions: 40° C./75% RH, 80° C. and ambient light/temperature for 1 week
Protocol: Form A was not isolated directly as a wet cake but formed only upon drying of Form E in polymorphism studies. […] Small quantities of Form A were generated by dissolving a crude Compound 1 in MEK at high temperature, followed by fast cooling to room temperature, filtration and drying. DSC and TGA data were obtained for samples of Form A and following storage for 1 week at 60° C. and 60° C./75% RH. […] TGA analysis confirmed that this broad endotherm was most likely due to moisture uptake under the accelerated storage conditions. Most of the weight loss of 0.82% in this sample occurred in a single step at less than 75° C. By contrast, weigh loss was a two-step process at the initial time point. […] The residual solvent initially present in the sample was lost upon storage of the sample at 60° C. (0.13% weight loss between 25 to 150° C.).
Form B could be obtained from a process involving methyl acetate. […] HPLC traces were taken of the samples of Form B and following storage for 2 week at 60° C. and 60° C./75% RH. […] Several small degradation products were seen to grow especially in the sample stored at 60° C. Chiral instability was also observed in the sample stored at 60° C./75% RH.
Physical stability: Visually, all samples of Form K were white colored powder with no apparent change in color in the samples stored under accelerated conditions (40° C., 40° C./75% RH, 60° C., 60° C./75% RH and sample stored in light chamber in clear vials exposed to light and covered in aluminum foil) for 14 d relative to the sample stored refrigerated and under ambient conditions.
Solid state chemical stability: HPLC analysis were performed on Form K samples stored under the accelerated stability conditions. […] Based on the HPLC analysis data, there is a measurable but small change in the chemical stability of Form K under the accelerated conditions of temperature, humidity and exposure to light over the 14 d period.
Solid state chiral stability: Chiral stability of Form K samples stored under accelerated stability conditions was tested. There was ˜2.9% of the R-enantiomer (97.1 area % of the active S-isomer) in the initial sample. […]
The chiral purity (area % of S-isomer) remained […] under the accelerated stability conditions.

[5] = Competitive slurry and slurry stability experiments
Protocol: Form B was obtained at room temperature while form C was obtained at 45° C. in acetone alone.
as §1

## Br.N#Cc1ccc(N2CCN(Cc3ccc(COc4cccc5c4CN([C@H]4CCC(=O)NC4=O)C5=O)cc3)CC2)c(F)c1
[1]; FaSSIF
  Solubility: <LOQ
[1]; FeSSiF
  Solubility: 0.111 mg/mL
[1]; SGF with pepsin
  Solubility: 0.077 mg/mL
[1]; Water, t0
  Solubility: 0.301(t0), mg/ml
[1]; Water, t24
  Solubility: 0.212 mg/mL
[1]; pH 1 buffer HC1/NaC1
  Solubility: 0.018 mg/mL
[1]; pH 3 buffer (phosphate)
  Solubility: 0.032 mg/mL
[1]; pH 4 buffer (acetate)
  Solubility: 0.038 mg/mL
[1]; pH 5 buffer (acetate)
  Solubility: 0.004 mg/mL
[1]; solubility sample in FaSSIF
  Final pH: 6.40
[1]; solubility sample in FeSSiF
  Final pH: 5.16
[1]; solubility sample in SGF with pepsin
  Final pH: 1.15
[1]; solubility sample in Water
  Final pH: 4.53
[1]; solubility sample in pH 1 buffer HC1/NaC1
  Final pH: 0.95
[1]; solubility sample in pH 3 buffer (phosphate)
  Final pH: 3.11
[1]; solubility sample in pH 4 buffer (acetate)
  Final pH: 4.18
[1]; solubility sample in pH 5 buffer (acetate)
  Final pH: 5.08
[2]
  mother liquor concentration in buffers: < 0.05 mg/mL
[3]; DVS, class by mass gain at 85% r.h.
  hygroscopicity: slightly hygroscopic (slightly hygroscopic (mass increase of <2% but ≥0.2%))
[3]; after the DVS humidity cycle
  solid form after DVS cycle: remains as Form A
[3]; relative humidity from about 0% to about 95%
  DVS mass increase: about 0.7%
[3]; relative humidity from about 5% to about 90%
  DVS mass increase: about 0.7%
[3]; up to 90% RH
  DVS mass increase: ~0.69%
[4]
  physical (XRPD) and chemical (HPLC) stability: both physically and chemically stable
[5]; slurried in water for ~24 h
  disproportionation in water: did not appear to disproportionate back to the free base
[5]; various water activities
  slurry in acetone/water mixtures (XRPD): no hydrate formation evident
